# Read-outs that look alike come from different tables or passages of the source. Starred links: 1 amine or outer side, 2 acyl side, 3 side chain; linkers in the order of their positions; H or OH if unused. Non-standard residues stand in square brackets, D forms with d. Groups on a side chain read outwards from the residue. *: point of attachment. C20 diacid = O=C(O)CCCCCCCCCCCCCCCCCCC(=O)*; C18 diacid = O=C(O)CCCCCCCCCCCCCCCCC(=O)*; αMePhe(2-F) = C[C@](N)(Cc1ccccc1F)C(=O)O; γGlu = O=C(O)[C@H](CCC(=O)[*:2])N[*:1]; NMeY = CN[C@@H](Cc1ccc(O)cc1)C(=O)O; αMeF = C[C@](N)(Cc1ccccc1)C(=O)O; αMeL = CC(C)C[C@](C)(N)C(=O)O; Orn = NCCC[C@H](N)C(=O)O; AEEA = NCCOCCOCC(=O)O; Aib = CC(C)(N)C(=O)O
# T1: hGIPR (Homo sapiens, UniProt P48546)
# T1 sequence (P48546 22-466): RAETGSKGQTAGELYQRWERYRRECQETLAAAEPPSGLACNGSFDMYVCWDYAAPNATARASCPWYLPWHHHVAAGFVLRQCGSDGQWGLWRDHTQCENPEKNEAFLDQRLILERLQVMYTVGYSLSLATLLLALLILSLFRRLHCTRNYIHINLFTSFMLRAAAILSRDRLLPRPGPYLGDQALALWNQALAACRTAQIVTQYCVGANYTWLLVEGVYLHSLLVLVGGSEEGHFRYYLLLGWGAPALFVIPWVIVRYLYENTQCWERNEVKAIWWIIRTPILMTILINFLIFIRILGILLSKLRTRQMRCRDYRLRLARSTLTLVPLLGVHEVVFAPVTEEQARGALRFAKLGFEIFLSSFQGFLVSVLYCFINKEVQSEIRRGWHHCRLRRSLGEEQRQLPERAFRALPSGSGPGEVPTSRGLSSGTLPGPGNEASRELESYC
# T2: human GIP receptor (human) (UniProt P48546)
# T2 sequence (looked up): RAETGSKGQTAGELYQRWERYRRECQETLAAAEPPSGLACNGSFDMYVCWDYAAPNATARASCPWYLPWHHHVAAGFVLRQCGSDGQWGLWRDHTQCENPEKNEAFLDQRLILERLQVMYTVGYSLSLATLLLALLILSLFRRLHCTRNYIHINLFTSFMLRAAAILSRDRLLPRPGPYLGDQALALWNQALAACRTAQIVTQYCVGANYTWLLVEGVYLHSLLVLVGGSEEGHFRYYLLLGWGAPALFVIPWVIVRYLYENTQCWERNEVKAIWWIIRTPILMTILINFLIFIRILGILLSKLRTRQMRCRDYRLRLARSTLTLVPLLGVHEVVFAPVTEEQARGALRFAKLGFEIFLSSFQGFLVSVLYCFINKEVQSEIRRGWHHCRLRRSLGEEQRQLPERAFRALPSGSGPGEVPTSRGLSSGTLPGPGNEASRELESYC
# Key:
# hGLP-1R [1] = molecular target: T3, hGLP-1R (Homo sapiens, UniProt P43220); assay: Functional cAMP activity in the presence of 1% HSA; assay type: cell-based; settings: read-out: cAMP Rel EC50, hGLP-1R
# Target sequence in this assay (P43220 24-463): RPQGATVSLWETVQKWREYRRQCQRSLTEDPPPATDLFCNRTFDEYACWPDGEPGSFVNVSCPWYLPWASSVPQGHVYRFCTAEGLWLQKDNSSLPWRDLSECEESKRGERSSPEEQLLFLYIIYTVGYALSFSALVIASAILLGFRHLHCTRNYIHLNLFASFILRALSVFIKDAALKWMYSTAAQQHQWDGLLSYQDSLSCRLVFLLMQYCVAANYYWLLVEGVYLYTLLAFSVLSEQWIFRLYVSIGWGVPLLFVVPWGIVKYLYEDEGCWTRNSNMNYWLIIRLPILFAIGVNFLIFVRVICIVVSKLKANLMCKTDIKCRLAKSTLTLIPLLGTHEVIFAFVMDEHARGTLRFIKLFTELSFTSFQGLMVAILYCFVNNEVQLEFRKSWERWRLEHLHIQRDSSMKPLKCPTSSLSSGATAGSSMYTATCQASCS
# hGIPR [2] = molecular target: T1, hGIPR; assay: Functional cAMP activity in the presence of 1% HSA; assay type: cell-based; settings: read-out: cAMP Rel EC50, hGIPR
# human GcgR = human GcgR (Homo sapiens, UniProt P47871); assay: Functional cAMP activity in the presence of 1% HSA; assay type: cell-based; settings: read-out: cAMP Rel EC50, hGcgR
# hGLP-1R [3] = molecular target: T3, hGLP-1R; assay: GLP-1R CHO cell β-arrestin recruitment assay; assay type: cell-based; set-up: host or cells: CHO-K1 (PathHunter, assay-ready frozen cells); settings: for EC50: CHO-K1 PathHunter, β-arrestin-2, 0.1% casein, read-out: hGLP1R β-arrestin Rel EC50; for % Stimulation Max: normalized to GLP-1(7-36) as maximum control;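 for all read-outs here: luminescence read after 90 min peptide exposure at 37 °C and a further 60 min with detection reagent at room temperature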
# Target sequence in this assay (P43220 24-463): as above
# Target sequence in this assay (P32121 whole entry partner): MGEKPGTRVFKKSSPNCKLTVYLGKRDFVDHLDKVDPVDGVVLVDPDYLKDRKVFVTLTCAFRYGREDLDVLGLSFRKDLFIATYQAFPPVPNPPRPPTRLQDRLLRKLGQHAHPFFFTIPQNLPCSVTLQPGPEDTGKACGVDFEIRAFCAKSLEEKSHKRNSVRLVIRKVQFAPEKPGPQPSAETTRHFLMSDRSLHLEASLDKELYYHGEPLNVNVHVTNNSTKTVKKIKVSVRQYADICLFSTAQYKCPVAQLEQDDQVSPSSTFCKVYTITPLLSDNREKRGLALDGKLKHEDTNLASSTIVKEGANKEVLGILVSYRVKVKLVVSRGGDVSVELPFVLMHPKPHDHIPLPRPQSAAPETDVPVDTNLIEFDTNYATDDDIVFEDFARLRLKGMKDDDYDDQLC
# hGIPR [4] = molecular target: T1, hGIPR; assay: Functional cAMP activation in the presence of 0.1% casein (no HSA); assay type: cell-based; settings: in the presence of 0.1% casein (no HSA); geometric mean; read-out: Relative cAMP EC50, hGIPR;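 for Relative cAMP EC50, hGIPR: intracellular cAMP rise after 30 min at 37 °C read by HTRF against a standard curve, scaled between buffer alone (0%) and top control ligand concentration (100%), four-parameter fit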;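 for Relative cAMP EC50, hGLP-1R: intracellular cAMP rise after 30 min at 37 °C read by HTRF, normalized between buffer only (0%) and maximal control ligand (100%), four-parameter variable-slope fit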;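 for Relative cAMP EC50, hGcgR: intracellular cAMP rise after 30 min at 37 °C, read by HTRF against a cAMP standard curve, scaled from buffer only (0%) to maximal control ligand response (100%)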
# hGLP-1R [5] = molecular target: T3, hGLP-1R; assay: as above; assay type: cell-based; settings: in the presence of 0.1% casein (no HSA); geometric mean; read-out: Relative cAMP EC50, hGLP-1R
# Target sequence in this assay (P43220 24-463): as the sequence (P43220 24-463) above
# hGcgR = hGcgR (Homo sapiens, UniProt P47871); assay: as above; assay type: cell-based; settings: in the presence of 0.1% casein (no HSA); geometric mean; read-out: Relative cAMP EC50, hGcgR;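 note: intracellular cAMP rise after 30 min at 37 °C, read by HTRF against a cAMP standard curve, scaled from buffer only (0%) to maximal control ligand response (100%)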
# human GLP1-R = human GLP1-R (Homo sapiens, UniProt P43220); assay: GLP1-R internalization assay in HEK293 cells; assay type: cell-based; settings: for EC50: HEK293 cells expressing SNAP-GLP-1R, read-out: GLP1R Internalization EC50
# [6] = molecular target: human GLP1-R (SNAP-GLP-1R expressed in HEK293 cells) (human) (UniProt P43220); assay: cell-based or functional assay
# [7] = molecular target: T2, human GIP receptor (human); assay: cell-based or functional assay
# hGLP-1R [8] = molecular target: T3, hGLP-1R; assay: cell-based or functional assay
# Target sequence in this assay (P43220 24-463): as above
# [9] = molecular target: human glucagon receptor (human) (UniProt P47871); assay: cell-based or functional assay
# [10] = molecular target: Pro-Link-tagged Human GLP-1R (human) (UniProt P43220); assay: cell-based or functional assay
# [11] = normalized to maximum concentration of GLP-1 (100%)
# Chain of human GLP1-R (P43220 24-463): as above
# Chain of human GLP1-R (SNAP-GLP-1R expressed in HEK293 cells) (human) (P43220 24-463): as above
# Chain of Pro-Link-tagged Human GLP-1R (human) (P43220 24-463): as above
# Chain of human glucagon receptor (human) (P47871 26-477): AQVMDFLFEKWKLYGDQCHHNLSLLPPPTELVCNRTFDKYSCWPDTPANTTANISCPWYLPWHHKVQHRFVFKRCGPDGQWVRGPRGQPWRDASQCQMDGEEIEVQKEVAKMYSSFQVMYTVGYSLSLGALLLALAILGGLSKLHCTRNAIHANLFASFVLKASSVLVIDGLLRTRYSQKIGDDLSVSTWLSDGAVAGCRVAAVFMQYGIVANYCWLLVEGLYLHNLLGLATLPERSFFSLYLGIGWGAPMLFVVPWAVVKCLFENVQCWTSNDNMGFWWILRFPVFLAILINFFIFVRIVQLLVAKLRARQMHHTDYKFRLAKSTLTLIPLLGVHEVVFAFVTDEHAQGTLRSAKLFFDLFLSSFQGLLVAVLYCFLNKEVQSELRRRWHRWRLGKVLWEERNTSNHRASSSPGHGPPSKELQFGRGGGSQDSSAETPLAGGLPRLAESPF
# Chain of hGcgR (P47871 26-477): as above
# Chain of human GcgR (P47871 26-477): as above
Molecule,EC50 (hGLP-1R [1]) [nM],EC50 (hGIPR [2]) [nM],EC50 (human GcgR) [nM],EC50 (hGLP-1R [3]) [nM],% Stimulation Max (hGLP-1R [3]) [%],EC50 (hGIPR [4]) [nM],EC50 (hGLP-1R [5]) [nM],EC50 (hGcgR) [nM],other results
H-Y[Aib]QGTFTSDFSK[αMeL]LDKK([AEEA-AEEA-γGlu-C20 diacid])AQ[Aib]AFIEYLLAGGPSSGEPPPSSE-NH2 [Example 5],675,32.5,2670,> 10000,18.4,0.177,2.37,7.4,EC50 (human GLP1-R): 53.4 nM; Internalization % TOP (human GLP1-R; [11]): 75%
H-Y[Aib]QGTFTSDFSK[αMeL]LDKK([AEEA-γGlu-C20 diacid])AQ[Aib]AFIEYLLAGGPSSGEPPPSSE-NH2 [Example 3],546,48.1,1590,> 10000,16.5,0.217,1.67,3.8,EC50 (human GLP1-R): 49.2 nM; Internalization % TOP (human GLP1-R; [11]): 69.7%
H-Y[Aib]QGTFTSDYSI[αMeL]LDKIAAK([AEEA-AEEA-γGlu-C20 diacid])[Orn]FVQYLIAGGPSSGEPPPSEG-NH2 [Example 308],477,237,4950,16.9,41.4,–,3.15,14.2,–
H-Y[Aib]QGTFTSDYSI[αMeL]LDKK([AEEA-AEEA-γGlu-C20 diacid])AA[Aib]AFIEYLLEGGPSSGEPPPSEG-NH2 [Example 294],554,54.1,518,27.7,35.3,0.318,2.16,1.07,–
H-Y[Aib]QGTFTSDYSI[αMeL]LDKQAAK([AEEA-AEEA-γGlu-C20 diacid])AFVEWLLAGGPSSGEPPPSEG-NH2 [Example 305],415,92.4,1500,23.3,58.3,1,1.48,6.73,–
H-Y[Aib]QGT[αMePhe(2-F)]TSDYSKILDKIAQK([AEEA-γGlu-C20 diacid])AFIEYLLEGGPSSGEPPPSEG-NH2 [Example 311],1080,26.1,2500,19.2,39.6,0.113,3.36,2.08,–
Tirzepatide [reference compound],–,–,–,–,10.5,–,–,–,Internalization % TOP (human GLP1-R): 60.3%
YXQGTFTSDFSKXLDKKAQXAFIEYLLAGGPSSGEPPPSSE (not fully specified; synthetic construct; SITE 2: note = 2-Aminoisobutyric Acid; SITE 13: note = alpha-methyl-leucine; SITE 17: note = Lysine is chemically modified through conjugation of the epsilon-amino group of the Lysine side chain with (2-[2-(2-Amino-ethoxy)-ethoxy]-acetyl)-(gamma-Glu)-CO-(CH2) 18-CO2H; SITE 20: n) [Example 3],–,–,–,–,–,–,–,–,GLP1R Internalization EC50 [6]: 49.2 nM; Internalization % TOP [6]: 69.7%; Relative cAMP EC50 [7]: 0.217 nM; cAMP Rel EC50 (in the presence of 1% HSA) [7]: 48.1 nM; Relative cAMP EC50 (hGLP-1R [8]): 1.67 nM; cAMP Rel EC50 (in the presence of 1% HSA) (hGLP-1R [8]): 546 nM; Relative cAMP EC50 [9]: 3.8 nM; cAMP Rel EC50 (in the presence of 1% HSA) [9]: 1590 nM; % Stimulation Max [10]: 16.5%; hGLP1R β-arrestin Rel EC50 [10]: > 10000 nM
YXQGTFTSDFSKXLDKKAQXAFIEYLLAGGPSSGEPPPSSE (synthetic construct; SITE 2: note = 2-Aminoisobutyric Acid; SITE 13: note = alpha-methyl-leucine; SITE 17: note = Lysine is chemically modified through conjugation of the epsilon-amino group of the Lysine side chain with (2-[2-(2-Amino-ethoxy)-ethoxy]-acetyl)2-(gamma-Glu)-CO-(CH2 )18-CO2H; SITE 20:) [Example 5],–,–,–,–,–,–,–,–,GLP1R Internalization EC50 [6]: 53.4 nM; Internalization % TOP [6]: 75%; Relative cAMP EC50 [7]: 0.177 nM; cAMP Rel EC50 (in the presence of 1% HSA) [7]: 32.5 nM; Relative cAMP EC50 (hGLP-1R [8]): 2.37 nM; cAMP Rel EC50 (in the presence of 1% HSA) (hGLP-1R [8]): 675 nM; Relative cAMP EC50 [9]: 7.4 nM; cAMP Rel EC50 (in the presence of 1% HSA) [9]: 2670 nM; % Stimulation Max [10]: 18.4%; hGLP1R β-arrestin Rel EC50 [10]: > 10000 nM
YXQGTFTSDFSKXLDKKAQXAFIEYLLAGGPSSGEPPPSEE (synthetic construct; SITE 2: note = 2-Aminoisobutyric Acid; SITE 13: note = alpha-methyl-leucine; SITE 17: note = Lysine is chemically modified through conjugation of the epsilon-amino group of the Lysine side chain with (2-[2-(2-Amino-ethoxy)-ethoxy]-acetyl)-(gamma-Glu)-CO-(CH2) 18-CO2H; SITE 20: n) [Example 4],–,–,–,–,–,–,–,–,GLP1R Internalization EC50 [6]: 49.1 nM; Internalization % TOP [6]: 67.8%; Relative cAMP EC50 [7]: 0.192 nM; cAMP Rel EC50 (in the presence of 1% HSA) [7]: 62.3 nM; Relative cAMP EC50 (hGLP-1R [8]): 1.66 nM; cAMP Rel EC50 (in the presence of 1% HSA) (hGLP-1R [8]): 869 nM; Relative cAMP EC50 [9]: 3.2 nM; cAMP Rel EC50 (in the presence of 1% HSA) [9]: 1580 nM; % Stimulation Max [10]: 15.8%; hGLP1R β-arrestin Rel EC50 [10]: 23.2 nM

# Continued, in another order:
EC50 (hGLP-1R [1]) [nM],EC50 (hGIPR [2]) [nM],EC50 (human GcgR) [nM],EC50 (hGLP-1R [3]) [nM],% Stimulation Max (hGLP-1R [3]) [%],EC50 (hGIPR [4]) [nM],EC50 (hGLP-1R [5]) [nM],EC50 (hGcgR) [nM],Molecule,other results
70.9,41.3,1570,3.29,86.4,0.138,0.277,1.04,H-H[Aib]QGT[αMePhe(2-F)]TSDYSILLDKK([AEEA-γGlu-C20 diacid])AA[Aib]AFIEYLIEAGPSSGEPPPSEG-NH2 [Example 298],–
293,37.7,1440,10.8,44,0.232,1.56,6.04,H-Y[Aib]QGTFTSDYSI[αMeL]LDKIAAK([AEEA-AEEA-γGlu-C20 diacid])QFVQWLIE[Aib]GPSSGEPPPSEG-NH2 [Example 323],EC50 (human GLP1-R): 28.2 nM; Internalization % TOP (human GLP1-R; [11]): 84.8%
209,65.3,1880,9.86,70.8,0.446,0.836,1.68,H-Y[Aib]QGT[αMeF]TSDYSILLDKIAAK([AEEA-AEEA-γGlu-C18 diacid])NFIEYLVEGGPSSGEPPPSEG-NH2 [Example 307],–
295,9.63,1740,11.9,54.6,0.0587,0.994,4.01,H-Y[Aib]QGT[αMePhe(2-F)]TSDYSILLDKIAQK([AEEA-γGlu-C20 diacid])AFIEYLLEGGPSSGEPPPSEG-NH2 [Example 293],–
172,48,1720,9.21,47.8,0.127,0.551,2.31,H-Y[Aib]QGT[αMePhe(2-F)]TSDYSKLLDKIAQK([AEEA-γGlu-C20 diacid])AFIEYLIEGGPSSGEPPPSEG-NH2 [Example 304],–
251,424,3910,6.72,47.2,0.32,0.808,9.28,H-Y[Aib]QGT[αMePhe(2-F)]TSDYSKLLDKQAQK([AEEA-γGlu-C20 diacid])QFIEYLIEGGPSSGEPPPSEG-NH2 [Example 309],–
98,12.9,976,15.7,40.3,0.0975,1.05,6.54,H-[NMeY][Aib]QGT[αMeF]TSDYSILLDKIAAK([AEEA-AEEA-γGlu-C20 diacid])AFVQWLIAGGPSSGEPPPSEG-NH2 [Example 300],–
82.4,81.8,1500,13.2,59.1,0.722,0.641,6.73,H-[NMeY][Aib]QGT[αMeF]TSDYSILLDKQAAK([AEEA-AEEA-γGlu-C20 diacid])AFVQWLIAGGPSSGEPPPSEG-NH2 [Example 301],–
73.6,91.8,1370,11.2,56.6,0.7,0.621,4.47,H-[NMeY][Aib]QGT[αMeF]TSDYSILLDKQAAK([AEEA-AEEA-γGlu-C20 diacid])AFVQWLIEGGPSSGEPPPSEG-NH2 [Example 302],–

# Source: US20240270821A1, “GIP/GLP1/GCG TRI-RECEPTOR AGONISTS AND USES THEREOF” (priority 2023, published 2024)
